One test addresses T1, rabbit lens aldose reductase (Oryctolagus cuniculus, UniProt P15122).
T1 construct: aldose reductase prepared from rabbit lens; from tissue; host or cells: rabbit lens
The experiment in a line: Inhibitory effect on rabbit lens aldose reductase. It counts as biochemical.
Conditions: not given
In turn, `O=C(O)Cn1c(=O)sc2cc(Cl)ccc21` [compound 12] gave an IC50 of 0.41 µM.

Still in this test, the particulars now being: aldose reductase prepared from rabbit lens; graphically calculated from inhibitory effect at various concentrations; read-out: 50% Inhibitory concentration (IC50).
Regarding `O=C(O)Cn1c(=O)sc2c(Cl)c(-c3ccccc3)ccc21` [Test Compound 5, 2-Oxo-6-phenyl-7-chloro-3-benzothiazolineacetic acid], the IC50 was 0.12 µM.
Still for that read-out and setting: next, `O=C(O)Cn1c(=O)oc2cc(-c3ccccc3)c(Cl)cc21` [compound 7]: 0.049 µM.
The same measure, in the same setting: the value for `Nc1cc2sc(=O)n(CC(=O)O)c2cc1Cl` [compound 17] was 0.1 µM.
Still for that read-out and setting: next, `O=C(O)Cn1c(=O)sc2cc(Oc3ccccc3Cl)ccc21` [compound 4]: 0.27 µM; `O=C(O)Cn1c(=O)oc2ccc(Cl)cc21` [compound 11]: 0.25 µM; `O=C(O)Cn1c(=O)sc2cc(Br)c(Cl)cc21` [Test Compound 8, 2-Oxo-5-chloro-6-bromo-3-benzothiazolineacetic acid]: 0.05 µM.
On to `O=C(O)Cn1c(=O)sc2cc([N+](=O)[O-])c(Cl)cc21` [compound 16], for which the IC50 is 0.12 µM.
Same read-out and setting: next, `O=C(O)Cn1c(=O)sc2cc(Cl)c(Cl)cc21` [Test Compound 15, 2-Oxo-5,6-dichloro-3-benzothiazolineacetic acid]: 0.038 µM.
Regarding `O=C(O)Cn1c(=O)sc2ccc(Cl)cc21` [Test Compound 10, 2-Oxo-5-chloro-3-benzothiazolineacetic acid], the IC50 is 0.2 µM.
Still for that read-out and setting: next, `O=C(O)CN1C(=O)Cc2ccc(Cl)cc21` [compound 9]: 0.27 µM; `O=C(O)CN1C(=O)C(=O)c2ccc(Cl)cc21` [Test Compound 13, 2,3-dioxo-6-chloro-1-indolineacetic acid]: 0.3 µM; `O=C(O)Cn1c(=O)sc2cc(Oc3ccccc3)c(Cl)cc21` [Test Compound 1, 2-Oxo-5-chloro-6-phenoxy-3-benzothiazolineacetic acid]: 0.05 µM.
Same read-out and setting: next, `Cc1cc2c(cc1-c1ccccc1)sc(=O)n2CC(=O)O` [compound 14]: 0.033 µM; `O=C(O)Cn1c(=O)sc2cc(-c3ccccc3)c(Cl)cc21` [compound 2]: 0.029 µM; `O=C(O)Cn1c(=O)sc2cc(Oc3ccccc3)ccc21` [Test Compound 3, 2-Oxo-6-phenoxy-3-benzothiazolineacetic acid]: 0.69 µM.
For the compound `O=C(O)Cn1c(=O)sc2cc(C3CCCCC3)c(Cl)cc21` [Test Compound 6, 2-Oxo-5-chloro-6-cyclohexyl-3-benzothiazolineacetic acid], the IC50 is 0.14 µM.

The record behind these values is patent US4370340A, “Benzothiazol-2-one-3-alkanoic acids and esters and aldose reductase inhibiting compositions thereof” (Fujisawa Pharmaceutical Co., Ltd., priority 1979, dated 1983).
